Measurements from US12274732B2, “Anti-pathogen composition and methods of use thereof” (Tenfold Technologies, LLC, priority 2017, dated 2025).
Converted amounts (≈) assume the structure as drawn. Where two headings read alike, the source gives them in different places. Positions of bridges follow the written chain, without caps; N, C: chain ends. Non-standard residues stand in square brackets, D forms with d. Residues, ends and D or L forms follow the SMILES beside them. ξ: configuration not given here. *: point of attachment. Pentadecanoyl(3ξ-OH,15-Gua) = N=C(N)NCCCCCCCCCCCCC(O)CC(=O)*; d(aThr) = C[C@@H](O)[C@@H](N)C(=O)O

Legend:
Escherichia coli = test: In vitro antimicrobial activity against Escherichia coli; format: cell-based
Protocol: (§1) Fifty organic extracts were prepared from 25 whole broth of four microbial strains (MS1479, MS2379, MS2820, and MS2414), which were fermented in different media for the antimicrobial testing. Note each whole broth culture generated one n-butanol extract from cultural supernatant and one methanol extract from cell pellets.
(§2) The antimicrobial activities of the 50 organic extracts were studied against three fungal pathogens—Candida albicans, Aspergillus fumigatus, and Cryptococcus neoformans—and five bacterial strains-Methicillin-resistant Staphylococcus aureus (MIRSA), Escherichia coli, Pseudomonas aeruginosa, Klebsiella pneumoniae, and Vancomycin-resistant Enterococcus faecium (VRE) (FIG. 2). The test concentrations for all extracts were in the range of 8-200 μg/mL (Table 3).
(§3) The antimicrobial activities of identified fusaricidins were in an in vitro study against several clinically relevant microbes. […] For the in-vitro assays against bacteria, fusaricidins were tested against methicillin-resistant Staphylococcus aureus, vancomycin-resistant Enterococcus faecium, Escherichia coli, and Pseudomonas aeruginosa using four antibacterial drugs methicillin, vancomycin, cefotaxime, and meropenem as controls. […] Fusaricidins were also tested against fungal pathogens Cryptococcus neoformans, Candida albicans, and Aspergillus fumigatus and compared with two antifungal drugs, fluconazole and amphotericin B (Table 13). Moreover, the anti-parasitic activity was also tested against L. donovani and T. brucei (Table 14).

Pseudomonas aeruginosa = test: In vitro antimicrobial activity against Pseudomonas aeruginosa; format: cell-based
Protocol: as §1, §2, §3

Klebsiella pneumoniae = test: In vitro antimicrobial activity against Klebsiella pneumoniae; format: cell-based
Protocol: as §1, §2

Candida albicans = test: In vitro antimicrobial activity against Candida albicans; format: cell-based
Protocol: as §1, §2, §3

[1] = test system: Vancomycin-resistant Enterococcus faecium (VRE); test: In vitro antimicrobial activity against VRE; format: cell-based
Protocol: as §1, §2, §3

L. donovani = test: In-vitro antiparasitic activity against L. donovani; format: cell-based
Protocol: as §3

THP-1 = test: Cytotoxicity against THP-1 cells (counter-screen of the antiparasitic assays); format: cell-based
Protocol: as §3

[2] = test system: Methicillin-resistant Staphylococcus aureus (MRSA); test: In vitro antimicrobial activity against MRSA; format: cell-based
Protocol: as §1, §2, §3

Cryptococcus neoformans = test: In vitro antimicrobial activity against Cryptococcus neoformans; format: cell-based
Protocol: as §1, §2
The potent activities against the fungal pathogen C. neoformans and the gram-positive bacteria S. aureus, MRSA, and M. intracellulare were also shown in the crude extracts (FIG. 7).
as §3

Aspergillus fumigatus = test: In vitro antimicrobial activity against Aspergillus fumigatus; format: cell-based
Protocol: as §1, §2, §3

[3] = Heat stability of fusaricidins, whole broth autoclaved; format: physicochemical; conditions: fermentation whole broth autoclaved at 121.5° C. for 30 minutes
Protocol: In order to test the heat stability of fusaricidins, the fermentation whole broth was autoclaved at 121.5° C. for 30 minutes. Fusaricidin contents were analyzed before and after autoclave. Without being bound by a theory, fusaricidin A is heat stable because significant amounts of fusaricidin A were detected after the harsh heat treatment in most cases (FIG. 3B).

T. brucei = test: In-vitro antiparasitic activity against T. brucei; format: cell-based
Protocol: as §3

[4] = test conc. 200-8 μg/mL (extracts), 100-4 or 10-0.4 μg/mL (drugs)
[5] = Table 5, extracts tested at 8-200 μg/mL
[6] = Table 12, highest test conc. fusaricidins 20, controls 100 μg/mL
[7] = Table 12, lowest concentration that allows no detectable growth

C[C@@H]1[C@H](O)[C@@H](C)/C=C/C=C/C=C/C=C/C=C/C=C/C=C/[C@H](O[C@@H]2O[C@H](C)[C@@H](O)[C@H](N)[C@@H]2O)C[C@@H]2O[C@](O)(C[C@@H](O)C[C@@H](O)[C@H](O)CC[C@@H](O)C[C@@H](O)CC(=O)O[C@H]1C)C[C@H](O)[C@H]2C(=O)O [Amphotericin B]
E. coli IC50 (Escherichia coli; [4]): >100 µg/mL
P. aeruginosa IC50 (Pseudomonas aeruginosa; [4]): >100 µg/mL
K pneumoniae IC50 (Klebsiella pneumoniae; [4]): >100 µg/mL
C. albicans IC50 (Candida albicans; [5]): <0.1 µg/mL
C. albicans IC50 (50% growth inhibitory concentration) (Candida albicans; [6]): 0.4 µg/mL
C. albicans MIC (minimum inhibitory concentration) (Candida albicans; [7]): 0.8 µg/mL
C. albicans IC50 (Candida albicans; [4]): <0.1 µg/mL
VRE IC50 [1, 5]: >100 µg/mL
VRE IC50 [1, 4]: >100 µg/mL
L. donovani Amastigote IC50 (L. donovani; amastigote): 0.9 µg/mL
L. donovani Amastigote/THP IC50 (L. donovani; amastigote/THP): 0.2/0.2 μg/mL
L. donovani Amastigote/THP IC90 (L. donovani; amastigote/THP, 90% inhibitory concentration): 0.2/0.2 μg/mL
L. donovani Amastigote IC90 (L. donovani; amastigote, 90% inhibitory concentration): 1.1 µg/mL
L. donovani Promastigote IC50 (L. donovani; promastigote): 0.3 µg/mL
L. donovani Promastigote IC90 (L. donovani; promastigote, 90% inhibitory concentration): 0.4 µg/mL
THP-1 IC50 (THP-1): >2/>2 μg/mL
THP-1 IC90 (THP-1; 90% inhibitory concentration): >2/>2 μg/mL
MRS IC50 [2, 5]: >100 µg/mL
MRS IC50 [2, 4]: >100 µg/mL
IC50 against C. neoformans (Cryptococcus neoformans; Example 4, column fractions of MS2414 extract (FIG. 7)): 0.15 µg/mL (≈ 0.162 µM)
C. neoformans IC50 (Cryptococcus neoformans; [5]): 0.24 µg/mL
C. neoformans IC50 (50% growth inhibitory concentration) (Cryptococcus neoformans; [6]): 0.3 µg/mL
C. neoformans MIC (minimum inhibitory concentration) (Cryptococcus neoformans; [7]): 0.4 µg/mL
C. neoformans IC50 (Cryptococcus neoformans; [4]): 0.24 µg/mL
A. fumigatus IC50 (Aspergillus fumigatus; [5]): 1.407 µg/mL
A. fumigatus IC50 (50% growth inhibitory concentration) (Aspergillus fumigatus; [6]): 2.4 µg/mL
A. fumigatus MIC (minimum inhibitory concentration) (Aspergillus fumigatus; [7]): 3.1 µg/mL
A. fumigatus IC50 (Aspergillus fumigatus; [4]): 1.407 µg/mL

CC(C)[C@@H]1NC(=O)[C@@H](C(C)C)NC(=O)[C@@H](NC(=O)CC(O)CCCCCCCCCCCCNC(=N)N)[C@@H](C)OC(=O)[C@@H](C)NC(=O)[C@@H](CC(N)=O)NC(=O)[C@@H]([C@@H](C)O)NC1=O (some centres unmarked) [Fusaricidin A] ({Pentadecanoyl(3ξ-OH,15-Gua)}-T[dV]V[d(aThr)][dN][dA]; ester 1-C)
activity against VRE (in words) [1]: strong activity
activity against MRSA (in words) [2]: strong activity
heat stability [3]: heat stable

CN[C@H](CC(C)C)C(=O)N[C@H]1C(=O)N[C@@H](CC(N)=O)C(=O)N[C@H]2C(=O)N[C@H]3C(=O)N[C@H](C(=O)N[C@H](C(=O)O)c4cc(O)cc(O)c4-c4cc3ccc4O)[C@H](O)c3ccc(c(Cl)c3)Oc3cc2cc(c3O[C@@H]2O[C@H](CO)[C@@H](O)[C@H](O)[C@H]2O[C@H]2C[C@](C)(N)[C@H](O)[C@H](C)O2)Oc2ccc(cc2Cl)[C@H]1O [Vancomycin]
IC50 (Escherichia coli; Escherichia coli, ATCC2452, read-out: E. coli IC50 (50% growth inhibitory concentration)): 62.3 µg/mL (≈ 43 µM)
MIC (Escherichia coli; Escherichia coli, ATCC2452, read-out: E. coli MIC (minimum inhibitory concentration)): > 100 µg/mL
IC50 (Escherichia coli; Escherichia coli, read-out: E. coli IC50): 67.4 µg/mL (≈ 46.5 µM)
IC50 (Pseudomonas aeruginosa; Pseudomonas aeruginosa, ATCC2108, read-out: P. aeruginosa IC50 (50% growth inhibitory concentration)): > 100 µg/mL
MIC (Pseudomonas aeruginosa; Pseudomonas aeruginosa, ATCC2108, read-out: P. aeruginosa MIC (minimum inhibitory concentration)): > 100 µg/mL
IC50 (Pseudomonas aeruginosa; Pseudomonas aeruginosa, read-out: P. aeruginosa IC50): > 100 µg/mL
IC50 (Klebsiella pneumoniae; Klebsiella pneumoniae, read-out: K pneumoniae IC50): > 100 µg/mL
IC50 (Candida albicans; Candida albicans, read-out: C. albicans IC50): > 100 µg/mL
C. albicans IC50 (Candida albicans; [5]): >100 µg/mL
IC50 ([1]; Enterococcus faecium, ATCC 700221 / VRE, read-out: VRE IC50 (50% growth inhibitory concentration)): > 100 µg/mL
MIC ([1]; Enterococcus faecium, ATCC 700221 / VRE, read-out: VRE MIC (minimum inhibitory concentration)): > 100 µg/mL
VRE IC50 [1, 5]: >100 µg/mL
IC50 ([1]; read-out: VRE IC50): > 100 µg/mL
IC50 ([2]; Staphylococcus aureus, ATCC 1708 / MRSA, read-out: MRSA IC50 (50% growth inhibitory concentration)): 1.3 µg/mL (≈ 0.897 µM)
MIC ([2]; Staphylococcus aureus, ATCC 1708 / MRSA, read-out: MRSA MIC (minimum inhibitory concentration)): 1.6 µg/mL (≈ 1.1 µM)
IC50 ([2]; Staphylococcus aureus, MRSA, read-out: MRS IC50): 0.17 µg/mL (≈ 0.117 µM)
IC50 (Cryptococcus neoformans; Cryptococcus neoformans, read-out: C. neoformans IC50): > 100 µg/mL
C. neoformans IC50 (Cryptococcus neoformans; [5]): >100 µg/mL
IC50 (Aspergillus fumigatus; Aspergillus fumigatus, read-out: A. fumigatus IC50): > 100 µg/mL
A. fumigatus IC50 (Aspergillus fumigatus; [5]): >100 µg/mL

NCCC[C@](N)(C(=O)O)C(F)F [α-Difluoromethylomithine]
T. brucei IC50 (T. brucei): 5.7 µg/mL
T. brucei IC90 (T. brucei; 90% inhibitory concentration): 6.6 µg/mL
